Earlier results as cited in patent publication US5271935A, “Antibiotic, cammunocin, a process for the preparation thereof, and the use thereof as a pharmaceutical” (Hoechst Aktiengesellschaft, priority 1988, dated 1993).

Tested on: Gram-positive bacteria
Conditions: other known antibiotics

## amphomycin
  requirement for calcium ions to show an antibiotic effect: 1.0 mM
